Data on 13 molecules can be found in patent EP4678638A1, “NEW E3 UBIQUITIN LIGASE LIGAND, PROTEIN DEGRADATION AGENT AND USE THEREOF” (priority 2023, dated 2024).

The structures appear in SMILES notation.

The experiment has as its target T1, FAK (Homo sapiens, UniProt Q05397).
T1 construct: evaluate the effects of the compounds of the present disclosure on the expression of target proteins in cells; endogenous in cells
Nature of the experiment: Western blot degradation of FAK. Type of experiment: cell-based. The conditions noted are these: Table D7. As to the method: Conventional Western blot assay was performed to evaluate the effects of the compounds of the present disclosure on the expression of target proteins in cells.
(1) Cell Seeding and Protein Harvesting: The selected cells were processed according to the cell seeding procedure and protein harvesting procedure in Table III-2. Table III-2 Cell Seeding and Protein Harvesting Procedures
(2) To the collected supernatant, 5X SDS sample loading buffer was added, followed by denaturation at 95°C for 5 minutes. The denatured samples were then separated by SDS-PAGE electrophoresis on a polyacrylamide gel. Proteins were transferred to a nitrocellulose membrane (0.45 µm NC membrane), blocked with blocking buffer at room temperature for 1 hour, and subjected to antibody incubation and development procedures according to the antibody manufacturer's instructions (Cell Signaling Technology).
Half-Maximal Degradation Concentration value (the drug concentration required for degrading proteins by 50%, abbreviated as DC50) reads method: comparing the grayscale values of Western blot bands from drug-treated samples with those from blank DMSO-treated controls, and identifying the drug concentration range at which the grayscale value is half that of the DMSO-treated control bands.
DC50 values can be calculated using ImageJ software to measure grayscale values of Western blot bands from drug-treated samples. The concentration-response curve is fitted to estimate the drug concentration corresponding to half the grayscale value.
Target protein remaining (%) refers to the percentage of target protein remaining in hPBMC cells after treatment with protein degrader compounds.
Calculation method for target protein remaining (%): Use ImageJ software to measure grayscale values of Western blot bands from drug (protein degrader)-treated samples. The grayscale value of drug-treated bands is divided by that of internal control protein bands, and the resulting quotient is normalized to obtain the relative percentage of remaining target protein after protein degrader treatment.
Target protein degradation rate (%) = 100% - target protein remaining (%).
A general note: A western blot detects proteins with antibodies after separation by electrophoresis.

T1 sequence (Q05397 whole entry, species assumed): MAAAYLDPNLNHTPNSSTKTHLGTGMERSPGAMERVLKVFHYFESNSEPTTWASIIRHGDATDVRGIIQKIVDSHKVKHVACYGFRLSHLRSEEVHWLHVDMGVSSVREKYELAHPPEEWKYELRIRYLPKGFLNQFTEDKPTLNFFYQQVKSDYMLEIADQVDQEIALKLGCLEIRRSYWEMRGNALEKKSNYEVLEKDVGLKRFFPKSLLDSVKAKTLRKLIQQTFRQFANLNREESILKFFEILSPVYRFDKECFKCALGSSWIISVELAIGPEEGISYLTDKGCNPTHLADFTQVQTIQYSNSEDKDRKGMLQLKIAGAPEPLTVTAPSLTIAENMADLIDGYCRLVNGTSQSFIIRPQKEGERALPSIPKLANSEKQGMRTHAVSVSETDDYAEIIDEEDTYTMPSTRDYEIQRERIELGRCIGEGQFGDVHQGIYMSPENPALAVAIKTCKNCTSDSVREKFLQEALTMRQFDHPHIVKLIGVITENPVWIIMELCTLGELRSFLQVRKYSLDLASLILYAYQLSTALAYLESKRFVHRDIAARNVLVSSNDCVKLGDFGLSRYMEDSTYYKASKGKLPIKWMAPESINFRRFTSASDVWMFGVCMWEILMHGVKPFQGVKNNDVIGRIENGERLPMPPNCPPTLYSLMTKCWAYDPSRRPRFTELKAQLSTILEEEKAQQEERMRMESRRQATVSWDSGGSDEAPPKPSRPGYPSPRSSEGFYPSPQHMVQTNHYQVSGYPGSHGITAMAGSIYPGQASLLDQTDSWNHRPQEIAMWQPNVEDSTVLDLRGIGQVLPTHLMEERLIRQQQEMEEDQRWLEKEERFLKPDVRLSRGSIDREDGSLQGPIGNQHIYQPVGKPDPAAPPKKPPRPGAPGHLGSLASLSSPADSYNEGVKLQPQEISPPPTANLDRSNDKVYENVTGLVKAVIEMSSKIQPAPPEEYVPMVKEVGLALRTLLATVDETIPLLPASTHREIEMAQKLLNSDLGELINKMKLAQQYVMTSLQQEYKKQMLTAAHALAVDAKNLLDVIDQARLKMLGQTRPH

In the case of `CS(=O)(=O)c1cccc(CNc2nc(Nc3ccc(N4CCN(Cc5ccc(C6CCC(=O)NC6=O)cn5)CC4)cc3)ncc2C(F)(F)F)c1` (stereo not shown) [GT-07466, 3-(6-((4-(4-((4-((3-(methylsulfonyl)benzyl)amino)-5-(trifluoromethyl)pyrimidin-2-yl)amino)phenyl)piperazin-1-yl)methyl)pyridin-3-yl)piperidine-2,6-dione], the “Degradation of substrate protein FAK (substrate protein remaining %)” value (“Degradation … (substrate protein remaining %)” for short) is reported as “A (A is defined as 0% ≤ substrate protein remaining % ≤ 80%)”.
The entry for `CN(c1nccnc1CNc1nc(Nc2ccc(N3CCN(Cc4ccnc(C5CCC(=O)NC5=O)c4)CC3)cc2)ncc1C(F)(F)F)S(C)(=O)=O` (stereo not shown) [GT-07507, N-(3-(((2-((4-(4-((2-(2,6-dioxopiperidin-3-yl)pyridin-4-yl)methyl)piperazin-1-yl)phenyl)amino)-5-(trifluoromethyl)pyrimidin-4-yl)amino)methyl)pyrazin-2-yl)-N-methylmethanesulfonamide] is “A (A is defined as 0% ≤ substrate protein remaining % ≤ 80%)”.
The same measure for `CN(c1nccnc1CNc1nc(Nc2ccc(N3CCN(Cc4cncc(C5CCC(=O)NC5=O)c4)CC3)cc2)ncc1C(F)(F)F)S(C)(=O)=O` (stereo not shown) [GT-07510, N-(3-(((2-((4-(4-((5-(2,6-dioxopiperidin-3-yl)pyridin-3-yl)methyl)piperazin-1-yl)phenyl)amino)-5-(trifluoromethyl)pyrimidin-4-yl)amino)methyl)pyrazin-2-yl)-N-methylmethanesulfonamide]: “A (A is defined as 0% ≤ substrate protein remaining % ≤ 80%)”.
`CNC(=O)c1ccccc1Nc1cc(Nc2ccc(N3CCC(N(C)Cc4ccc(N5CCC(=O)NC5=O)cc4)CC3)cc2OC)ncc1C(F)(F)F` [GT-07649, 2-((2-((4-(4-((4-(2,4-dioxotetrahydropyrimidin-1(2H)-yl)benzyl)(methyl)amino)piperidin-1-yl)-2-methoxyphenyl)amino)-5-(trifluoromethyl)pyridin-4-yl)amino)-N-methylbenzamide]: the “Degradation … (substrate protein remaining %)” value is “A (A is defined as 0% ≤ substrate protein remaining % ≤ 80%)”.
`CNC(=O)c1ccccc1Nc1cc(Nc2ccc(N3CCC(N(C)Cc4cccc(N5CCC(=O)NC5=O)c4)CC3)cc2OC)ncc1C(F)(F)F` [GT-07650, 2-((2-((4-(4-((3-(2,4-dioxotetrahydropyrimidin-1(2H)-yl)benzyl)(methyl)amino)piperidin-1-yl)-2-methoxyphenyl)amino)-5-(trifluoromethyl)pyridin-4-yl)amino)-N-methylbenzamide]: the “Degradation … (substrate protein remaining %)” value is given as “A (A is defined as 0% ≤ substrate protein remaining % ≤ 80%)”.
The same measure for `CNC(=O)c1ccccc1Nc1cc(Nc2ccc(N3CCC(N(C)Cc4cccc(NC5CCC(=O)NC5=O)c4)CC3)cc2OC)ncc1C(F)(F)F` (stereo not shown) [GT-07652, 2-((2-((4-(4-((3-((2,6-dioxopiperidin-3-yl)amino)benzyl)(methyl)amino)piperidin-1-yl)-2-methoxyphenyl)amino)-5-(trifluoromethyl)pyridin-4-yl)amino)-N-methylbenzamide]: “A (A is defined as 0% ≤ substrate protein remaining % ≤ 80%)”; for `CNC(=O)c1ccccc1Nc1cc(Nc2ccc(N3CCC(N(C)Cc4ccnc(N5CCC(=O)NC5=O)c4)CC3)cc2OC)ncc1C(F)(F)F` [GT-07654, 2-((2-((4-(4-(((2-(2,4-dioxotetrahydropyrimidin-1(2H)-yl)pyridin-4-yl)methyl)(methyl)amino)piperidin-1-yl)-2-methoxyphenyl)amino)-5-(trifluoromethyl)pyridin-4-yl)amino)-N-methylbenzamide]: “A (A is defined as 0% ≤ substrate protein remaining % ≤ 80%)”; for `CNC(=O)c1ccccc1Nc1cc(Nc2ccc(N3CCC(N(C)Cc4ccc(C5CCC(=O)NC5=O)nc4)CC3)cc2OC)ncc1C(F)(F)F` (stereo not shown) [GT-07657, 2-((2-((4-(4-(((6-(2,6-dioxopiperidin-3-yl)pyridin-3-yl)methyl)(methyl)amino)piperidin-1-yl)-2-methoxyphenyl)amino)-5-(trifluoromethyl)pyridin-4-yl)amino)-N-methylbenzamide]: “A (A is defined as 0% ≤ substrate protein remaining % ≤ 80%)”.
The same measure for `CNC(=O)c1ccccc1Nc1cc(Nc2ccc(N3CCC(N(C)Cc4ccc(C5CCC(=O)NC5=O)cn4)CC3)cc2OC)ncc1C(F)(F)F` (stereo not shown) [GT-07658, 2-((2-((4-(4-(((5-(2,6-dioxopiperidin-3-yl)pyridin-2-yl)methyl)(methyl)amino)piperidin-1-yl)-2-methoxyphenyl)amino)-5-(trifluoromethyl)pyridin-4-yl)amino)-N-methylbenzamide]: “A (A is defined as 0% ≤ substrate protein remaining % ≤ 80%)”; for `CNC(=O)c1ccccc1Nc1cc(Nc2cc(C)c(C3CCN(Cc4ccc(N5CCC(=O)NC5=O)nc4)CC3)cc2OC(C)C)ncc1C(F)(F)F` [GT-07670, 2-((2-((4-(1-((6-(2,4-dioxotetrahydropyrimidin-1(2H)-yl)pyridin-3-yl)methyl)piperidin-4-yl)-2-isopropoxy-5-methylphenyl)amino)-5-(trifluoromethyl)pyridin-4-yl)amino)-N-methylbenzamide]: “A (A is defined as 0% ≤ substrate protein remaining % ≤ 80%)”; for `CNC(=O)c1ccccc1Nc1cc(Nc2cc(C)c(C3CCN(Cc4cncc(N5CCC(=O)NC5=O)c4)CC3)cc2OC(C)C)ncc1C(F)(F)F` [GT-07674, 2-((2-((4-(1-((5-(2,4-dioxotetrahydropyrimidin-1(2H)-yl)pyridin-3-yl)methyl)piperidin-4-yl)-2-isopropoxy-5-methylphenyl)amino)-5-(trifluoromethyl)pyridin-4-yl)amino)-N-methylbenzamide]: “A (A is defined as 0% ≤ substrate protein remaining % ≤ 80%)”.
The entry for `CNC(=O)c1ccccc1Nc1cc(Nc2cc(C)c(C3CCN(Cc4cncc(C5CCC(=O)NC5=O)c4)CC3)cc2OC(C)C)ncc1C(F)(F)F` (stereo not shown) [GT-07678, 2-((2-((4-(1-((5-(2,6-dioxopiperidin-3-yl)pyridin-3-yl)methyl)piperidin-4-yl)-2-isopropoxy-5-methylphenyl)amino)-5-(trifluoromethyl)pyridin-4-yl)amino)-N-methylbenzamide] is “A (A is defined as 0% ≤ substrate protein remaining % ≤ 80%)”; for `CNC(=O)c1ccccc1Nc1cc(Nc2cc(C)c(C3CCN(Cc4cnc(N5CCC(=O)NC5=O)cn4)CC3)cc2OC(C)C)ncc1C(F)(F)F` [GT-07680, 2-((2-((4-(1-((5-(2,4-dioxotetrahydropyrimidin-1(2H)-yl)pyrazin-2-yl)methyl)piperidin-4-yl)-2-isopropoxy-5-methylphenyl)amino)-5-(trifluoromethyl)pyridin-4-yl)amino)-N-methylbenzamide] it is “A (A is defined as 0% ≤ substrate protein remaining % ≤ 80%)”.
